Laboratory results as given in ChEMBL document CHEMBL3507680, “University of Dundee, Gates Library screen for HepG2 cell viability”.

Assay: Human HepG2 cell viability assay in 384 well format
Format: toxicity, cell-based
Design: dose 125 nL, time 70.5 hour; concentration not given beside the values
Conditions: HepG2 cells, read-out: Inhibition
With `COC(=O)CN1CCC(C(F)(F)F)CC1` the cytotoxicity at 70.5 h was -2.55%. `CCCOc1ccc(Cl)cc1CNc1ncnc2oc(C)nc12` gave a cytotoxicity at 70.5 h of -6.3%. `Cc1nn(C)cc1-c1cc(C(F)(F)F)c2c(C)nn(CC(=O)O)c2n1` showed a cytotoxicity at 70.5 h of 32%. In the case of `COc1ccc(NC(=O)N2CCC(CSC)C2)cc1C` (stereo unspecified), the cytotoxicity at 70.5 h is reported as 2.45%. `Cc1noc(C)c1CN1C[C@@H](OCC(=O)N(C)C)[C@H]2OCCC[C@H]21` gave a cytotoxicity at 70.5 h of -9.4%. Compound `O=C(NCc1cccnc1N1CCCCC1)c1ccc2cc[nH]c2c1` has a cytotoxicity at 70.5 h of -15.2%. `Cn1cc(CN2CC[C@@H]3[C@@H](CCC(=O)N3CCc3ccccc3)C2)cn1` showed a cytotoxicity at 70.5 h of -0.863%. In the case of `NC(=O)CN1CCOCC(Cc2cccc(F)c2)C1` (stereo unspecified), the cytotoxicity at 70.5 h is reported as -12.7%. Work on `COc1cccc(CN(C)C(=O)CN2CC(n3nc(C)cc3C)C2)c1` yielded a cytotoxicity at 70.5 h of -1.82%. `CC1CCC(O)(CSc2nnnn2C2CC2)CC1` (stereo unspecified) showed a cytotoxicity at 70.5 h of -1.68%. With `COCC1CN(S(=O)(=O)C2CC2)Cc2ncn(CC3CC3)c21` (stereo unspecified) the cytotoxicity at 70.5 h was -1.47%. `Cc1ccc(C(=O)Nc2cn[nH]c2)cc1C` showed a cytotoxicity at 70.5 h of -1.12%. With `O=S(=O)(NC[C@]12COC[C@H]1CN(CCc1ccccc1)C2)C1CC1` the cytotoxicity at 70.5 h was -2.87%. For `O=S(=O)(c1ccccc1)N1CCCCC1c1cc[nH]n1` (stereo unspecified), the cytotoxicity at 70.5 h was 21.8%. With `CCOc1ccccc1CCN1Cc2ncccc2C1=O` the cytotoxicity at 70.5 h was 3.15%. For `NC(=O)CN1CCC(NC(=O)N2CCCC2c2ccsc2)CC1` (stereo unspecified), the cytotoxicity at 70.5 h was -6.14%. With `NS(=O)(=O)c1ccc(F)c(C(=O)NCCSc2ccccn2)c1` the cytotoxicity at 70.5 h was -4.06%. `Cc1cccc(-c2noc([C@@H]3C[C@@H](O)CN3C)n2)c1` showed a cytotoxicity at 70.5 h of 3.3%. `COc1nn(C)cc1C(=O)NCC(OC)c1ccccc1C` (stereo unspecified) gave a cytotoxicity at 70.5 h of -3.02%. For `CO[C@H]1CN(Cc2ccccc2F)C[C@@]12CCCO2`, the cytotoxicity at 70.5 h was -5.8%. In the case of `Cc1nc(CNC(=O)N(C)Cc2cnn(C)c2)cs1`, the cytotoxicity at 70.5 h is reported as 9.64%. Compound `CCC(O)CN1CCN(C(=O)Cc2cc(Cl)ccc2OC)CC1` (stereo unspecified) has a cytotoxicity at 70.5 h of -8.81%. `COc1ccc(/C=C/CN2CCC3(C2)CN(C)C(=O)O3)cc1` (stereo unspecified) gave a cytotoxicity at 70.5 h of -6.62%. With `CCOc1ccc(C(=O)N2C[C@H]3CC[C@@H]2CN(C)C3)cc1OCC` the cytotoxicity at 70.5 h was -14.6%. For `CCOc1ccc(C(=O)N2CCCC2c2cnn(C)c2)cn1` (stereo unspecified), the cytotoxicity at 70.5 h was -5.51%. Compound `O=C(CCn1nc(C(F)(F)F)c(Cl)c1C1CC1)NN1CCOCC1` has a cytotoxicity at 70.5 h of -1.82%. Compound `CC(C)(C)N1CC(c2ncc(-c3ccc4c(c3)OCCO4)[nH]2)CC1=O` (stereo unspecified) has a cytotoxicity at 70.5 h of -2.24%. `Cc1cc(C(=O)NCc2csc(N(C)C)n2)c2ccc(C)c(C)c2n1` gave a cytotoxicity at 70.5 h of 0.264%. Work on `Cc1ncoc1C(=O)N1C[C@H]2CCC[C@@]2(COCC2CCOCC2)C1` yielded a cytotoxicity at 70.5 h of -12.7%. For `O=C1OC2(CCN(C3CCCOC3)CC2)CN1CCc1ccccc1` (stereo unspecified), the cytotoxicity at 70.5 h was 5.31%. Compound `CC(=O)N1C(CN2CCCC2)C[C@@H]2CN(C(=O)c3ccoc3)CC[C@@H]21` (stereo partly specified) has a cytotoxicity at 70.5 h of -15.6%. Compound `Cc1cccc(OCCN2CCN(Cc3cnn(CCO)c3)CC2)c1` has a cytotoxicity at 70.5 h of -1.35%. `Cn1cc(-c2cnc(N3CCOCC3)nc2)cc1C(=O)NCCC#N` gave a cytotoxicity at 70.5 h of -9.71%. Compound `c1ccc(-c2nc(CN3CCc4c(ncn4C4CC4)C3)cs2)cc1` has a cytotoxicity at 70.5 h of 5.22%. Work on `Cc1nnsc1CN1CCCC1c1nc(-c2ccccc2)no1` (stereo unspecified) yielded a cytotoxicity at 70.5 h of -3.77%. In the case of `O[C@H]1[C@H](NCCc2ccccn2)c2ccccc2C12CCNCC2`, the cytotoxicity at 70.5 h is reported as 20.6%. Compound `O=C(Cn1nc(-c2ccc(F)cc2)oc1=O)NCC1CCCO1` (stereo unspecified) has a cytotoxicity at 70.5 h of -3.49%. Compound `OCc1cccc(OCc2ccon2)c1` has a cytotoxicity at 70.5 h of -3.01%. `CCC(=O)N1CCC2(CC1)CC(Oc1ccccc1)CO2` (stereo unspecified) gave a cytotoxicity at 70.5 h of -4.49%. `CC(=O)N1CC[C@H](c2nc3cc(F)ccc3o2)C1` gave a cytotoxicity at 70.5 h of 2.32%. `CS(=O)(=O)NCC1CCCN(C(=O)CCCc2ccccc2)C1` (stereo unspecified) gave a cytotoxicity at 70.5 h of -8.93%. In the case of `CCCn1cc(C(=O)N2CCCC2(C)c2nc(C)cc(C)n2)cn1` (stereo unspecified), the cytotoxicity at 70.5 h is reported as -13.9%. In the case of `CC(=O)Nc1nc(C(=O)N2CCCC(n3nc(C)cc3C)C2)cs1` (stereo unspecified), the cytotoxicity at 70.5 h is reported as 31.5%. In the case of `CC(C)CC(C#N)NC(=O)c1ccc(Oc2cccnc2)cc1` (stereo unspecified), the cytotoxicity at 70.5 h is reported as -5.49%. Work on `COCc1nn(C)c2c1CCN(Cc1cnn(C)c1)C2` yielded a cytotoxicity at 70.5 h of -5.93%. Work on `Cc1ccsc1CN1CCc2nc3ccsc3c(=O)n2CC1` yielded a cytotoxicity at 70.5 h of -4.51%. Compound `O=C(NC1CC1)c1nc(Cn2c(C(F)F)nc3ccccc32)no1` has a cytotoxicity at 70.5 h of -7.88%. Work on `CNc1cncc(C2CCCN2Cc2ccccc2OCC(=O)O)n1` (stereo unspecified) yielded a cytotoxicity at 70.5 h of -8.8%. With `Cc1ncccc1NC(=O)[C@H]1C[C@@H]2CCN(Cc3nccs3)C[C@@H]2O1` the cytotoxicity at 70.5 h was -2.41%. For `COCCNc1cc(-c2ccccc2C(=O)O)c2cc[nH]c2n1`, the cytotoxicity at 70.5 h was -10.4%. With `Cc1cc(N2CCN(Cc3ccc(-c4cc[nH]n4)o3)CC2)cc(C)n1` the cytotoxicity at 70.5 h was 19.1%. For `CC(C)(C)c1nnc(CN2CCN(CC(O)c3ccccc3)CC2)o1` (stereo unspecified), the cytotoxicity at 70.5 h was -11.1%. In the case of `Cc1csc(CNC(=O)NC(C)c2ccc3c(c2)OCCO3)n1` (stereo unspecified), the cytotoxicity at 70.5 h is reported as 5.07%. Work on `Cc1cnc(CNC(=O)CC2CCc3ccccc32)cn1` (stereo unspecified) yielded a cytotoxicity at 70.5 h of -13.9%. In the case of `CCN1C(=O)[C@]2(CC[C@@H]3CN(S(=O)(=O)CC(C)C)C[C@@H]32)N=C1C`, the cytotoxicity at 70.5 h is reported as -12.6%. In the case of `CCc1nc(CN2CCCN(c3ncnc4ccsc34)CC2)no1`, the cytotoxicity at 70.5 h is reported as 8.93%. Work on `CC(C)CN1C(=O)COC[C@@H]1[C@H](O)c1ccc(NC(=O)C2CC2)cc1` yielded a cytotoxicity at 70.5 h of 5.4%. `CCN(CCOc1ccc(F)cc1)C(=O)c1ccncc1Cl` gave a cytotoxicity at 70.5 h of -2.29%. For `CC(C)=CCC1(C(=O)O)CCCN(c2ccnc(N)n2)C1` (stereo unspecified), the cytotoxicity at 70.5 h was 17%. `CNc1nccc(C2CCCCN2Cc2cnn3cccnc23)n1` (stereo unspecified) gave a cytotoxicity at 70.5 h of -9.3%. Compound `O=C(COc1cccc(Br)c1)N1CCN(c2nccs2)CC1` has a cytotoxicity at 70.5 h of 14.3%. `Cc1cccc(N2CC3(CCN(S(=O)(=O)c4cccs4)C3)CC2=O)c1` (stereo unspecified) gave a cytotoxicity at 70.5 h of -2.22%. For `Cc1nsc(N2CCCN(C(=O)NCc3cccnc3)CC2)n1`, the cytotoxicity at 70.5 h was -0.506%. Work on `O=C(NS(=O)(=O)c1cccnc1)C1CC(c2ccccc2)=NO1` (stereo unspecified) yielded a cytotoxicity at 70.5 h of -4.92%. Work on `CC(=O)N1CCC(c2nccnc2-c2ccc(F)c(F)c2)CC1` yielded a cytotoxicity at 70.5 h of -0.906%. `c1csc(CN2CCC3(CC2)CCN(CC2CCOCC2)C3)n1` gave a cytotoxicity at 70.5 h of 0.161%. In the case of `CCCc1nc(CN2CCOC(Cn3cncn3)C2)no1` (stereo unspecified), the cytotoxicity at 70.5 h is reported as 18.1%. Work on `CNC(=O)C(c1cccc(Cl)c1)C(C)C` (stereo unspecified) yielded a cytotoxicity at 70.5 h of 17.1%. Work on `CCOc1nnc(CN2CCN(CCOC)C(C)C2)s1` (stereo unspecified) yielded a cytotoxicity at 70.5 h of -7.83%. Work on `Cc1cccc(CN2CCc3ncnc(N4CCN(C)CC4)c3CC2)n1` yielded a cytotoxicity at 70.5 h of -0.603%. With `CCOc1ccc(NC(C)=O)cc1S(=O)(=O)Nc1ccon1` the cytotoxicity at 70.5 h was 4.6%. Work on `CNC(=O)C1CCCN(c2nc(-c3ccco3)nc3c2CCNCC3)C1` (stereo unspecified) yielded a cytotoxicity at 70.5 h of -4.06%. For `OC1(CN2CCOC(Cn3cccn3)C2)CCCCC1` (stereo unspecified), the cytotoxicity at 70.5 h was 0.595%. Work on `CNC(=O)Cc1ccc(-n2ccnc2-c2cccc(C(=O)O)c2)cc1` yielded a cytotoxicity at 70.5 h of 17.5%. `O=C(O)c1cc2c(nc1N1CCOCC1)CCN(C1CCOC1)CC2` (stereo unspecified) showed a cytotoxicity at 70.5 h of -4.23%. For `Cn1ccnc1Sc1ncc(C(=O)N2CCCCC2)cc1Cl`, the cytotoxicity at 70.5 h was -4.57%. `CC(CC#N)N(C)Cc1ccc(F)cc1C#N` (stereo unspecified) showed a cytotoxicity at 70.5 h of 11.9%. Work on `Cc1ccc(CN2CC[C@@H]3CN(S(C)(=O)=O)CCO[C@@H]3C2)o1` yielded a cytotoxicity at 70.5 h of 7.49%. Work on `O=C(N[C@@H]1CN(Cc2cccs2)[C@@H]2CCCO[C@@H]21)c1cscn1` yielded a cytotoxicity at 70.5 h of -9.16%. `COc1cccc(N2C(=O)CC3(CCNCC3)C2=O)c1` gave a cytotoxicity at 70.5 h of -4.17%. For `Cc1cccc(C(C(=O)NCCCc2ccccn2)N(C)C)c1` (stereo unspecified), the cytotoxicity at 70.5 h was 21.2%.
